Measurements published in US11712425B2, “Immunoregulatory role of 3-OH-kynurenamine and uses thereof” (ALBERT EINSTEIN COLLEGE OF MEDICINE, priority 2018, dated 2023).
Entries after “also recorded” stand apart in the source; their conditions may differ.

Key:
[1] = molecular target: T1, AhR (Mus musculus, UniProt P30561); test: AhR luciferase reporter (Cyp1a1 promoter) in mouse embryonic fibroblasts; type: cell-based; conditions: for AhR activation (luciferase reporter): MEFs constitutively expressing AhR, stimulated 24 hours, different concentrations
T1 construct: mouse embryonic fibroblasts (MEFs) constitutively expressing AhR; endogenous in cells; host or cells: mouse embryonic fibroblasts (MEFs)
T1 sequence (P30561 10-848): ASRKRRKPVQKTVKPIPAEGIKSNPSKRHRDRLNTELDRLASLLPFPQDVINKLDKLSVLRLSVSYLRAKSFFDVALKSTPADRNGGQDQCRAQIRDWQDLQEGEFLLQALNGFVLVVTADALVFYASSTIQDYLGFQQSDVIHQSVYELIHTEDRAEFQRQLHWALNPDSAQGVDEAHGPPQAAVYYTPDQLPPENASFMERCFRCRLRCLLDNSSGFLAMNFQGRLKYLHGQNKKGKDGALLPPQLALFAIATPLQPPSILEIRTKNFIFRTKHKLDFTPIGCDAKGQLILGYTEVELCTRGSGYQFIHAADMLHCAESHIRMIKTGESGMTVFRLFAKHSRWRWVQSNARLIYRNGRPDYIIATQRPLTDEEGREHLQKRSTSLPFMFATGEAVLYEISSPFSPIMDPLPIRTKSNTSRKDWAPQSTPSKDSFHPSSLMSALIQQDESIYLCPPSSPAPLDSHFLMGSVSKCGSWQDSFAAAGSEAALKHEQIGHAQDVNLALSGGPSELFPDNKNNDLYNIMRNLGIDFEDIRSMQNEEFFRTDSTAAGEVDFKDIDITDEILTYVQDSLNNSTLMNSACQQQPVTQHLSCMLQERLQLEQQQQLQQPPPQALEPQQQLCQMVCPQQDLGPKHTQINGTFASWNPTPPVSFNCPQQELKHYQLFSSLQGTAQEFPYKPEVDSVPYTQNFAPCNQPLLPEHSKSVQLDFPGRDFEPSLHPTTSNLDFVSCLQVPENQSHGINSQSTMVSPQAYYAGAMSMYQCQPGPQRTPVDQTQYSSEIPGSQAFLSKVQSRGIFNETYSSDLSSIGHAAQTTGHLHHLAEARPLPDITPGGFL
Method: Cells were either untreated or stimulated for 24 hours with different concentrations of 3-OH-kynurenamine and, as positive control, L-kynurenine, the known AhR agonist.

[2] = tested on: cDCs; test: Gene expression by RT-PCR in conditioned cDCs; type: cell-based, mouse; conditions: cDCs from spleens of C57BL/6 mice, 30 μM, after 2-6 hr
Method: FIG. 3A-3D. 3-OH-kynurenamine confers immunosuppressive properties on DCs. […] Analysis (B) was calculated from 3 independent experiments. C and D) mouse cDCs (C) and human PBMCs (D). After incubation with 30 (C) or 2 (D) μM kynurenines, gene expression was evaluated by RT-PCR at 6− (C) or 6 and 18 (D) h. Data were normalized to GAPDH expression and presented relative to results in untreated cells (dotted line, one-fold). Mean fold induction+SD of triplicate experiments.
(§1) Biological Role of 3-OH-Kynurenamine. Trp metabolites are known to exert several functions in immune cells. In dendritic cells, either cDCs or pDCs, incubation with L-kynurenine and/or 3-OH-anthranilic acid induces IDO1 expression and production of immunosuppressive TGF-β production. In turn, cDCs and pDCs conditioned with these Trp catabolites increase differentiation of T lymphocytes into Treg cells in vitro and, when administered in vivo, induce antigen-specific T cell tolerance.

[3] = tested on: antigen-specific delayed-type hypersensitivity; test: In vivo suppressive activity of conditioned DCs (delayed-type hypersensitivity, footpad skin test); set-up: species or system mice; conditions: cDCs conditioned 24 hr with 30 μM, pulsed with IGRP peptide; skin reactivity at 15 days
Method: FIG. 4A-4B. […] B) In vivo suppressive activity of CD8^− DCs, pulsed with the IGRP peptide (an autoantigen in autoimmune diabetes), in combination with a minority fraction (5%) of CD8^− DCs either untreated (Unt) or pretreated with 30 μM 3-OH-kynurenamine for 24 h and pulsed with the same peptide prior in vivo administration; analysis of skin reactivity of recipient mice to the eliciting peptide at 15 days is presented as change in footpad weight. ***P<0.001 (mean weight of experimental versus control footpads, i.e., injected with vehicle alone). Results are presented as fold induction±SD of triplicate experiments.
as §1

[4] = tested on: dendritic cells; test: Quantitative proteomics of dendritic cells treated with 3-OH-kynurenamine; type: cell-based
[5] = tested on: NFκB pathway; test: Western blot of NFκB pathway in DCs; type: cell-based; conditions: 3 independent experiments
[6] = tested on: Psoriasis model; test: Imiquimod-induced psoriasis model; type: in vivo, mice; conditions: Imiquimod 7 days, 50 mg/kg ip for 7 days
Method: FIG. 5A-5B. […] Some of the mice were also treated with 3-OH-Kynurenamine (50 mg/kg ip; for 7 days). Controls are mice that were shaved but left untreated; Imiquimod and Imiquimod plus 3-OH-Kynurenamine refers to the specific treatments. After 7 days mice were sacrificed and skin processed for H&E staining.
as §1

[7] = tested on: nephrotoxic nephritis (NTN); test: Nephrotoxic nephritis (NTN) model; type: in vivo, 129/Sv mice; conditions: daily intraperitoneal 50 mg/kg from day +4 until day +12
Method: FIG. 6A-6F. […] Ten week old female 129/Sv mice were immunized intraperitoneally with rabbit IgG in complete Freund's adjuvant (day 0). Five days later, mice received an intravenous injection of 90 ul of pre-formed rabbit anti-mouse glomerular basement membrane antibodies (N-Ab) or PBS. Starting at day +4, mice started receiving daily intraperitoneal injections of 50 mg/kg of 3-OH-kynurenamine (n=6) or vehicle control (n=8) until sacrifice on day +12. A) Proteinuria levels determined at sacrifice by uristix. B) % of mice in each group at sacrifice that reached the predetermined cut-off value for severe proteinuria of >300 mg/dl. C) Blood Urea Nitrogen levels determined at sacrifice. D) % of mice in each group that reach pre-specified humane end points for sacrifice (>300 mg/dl on two consecutive days, a single value of >2000 mg/dl, or poor general well being. E and F) All groups of mice developed similar titers of E) antirabbit injected Ab and F) anti-GBM Ab. […] (*p<0.05, **p<0.01).
Biological Role of 3-OH-Kynurenamine. Trp metabolites are known to exert several functions in immune cells. In dendritic cells, either cDCs or pDCs, incubation with L-kynurenine and/or 3-OH-anthranilic acid induces IDO1 expression and production of immunosuppressive TGF-β production. […]

[8] = molecular target: T2, aromatic L-amino acid decarboxylase (AADC) (Homo sapiens, UniProt P20711); test: Decarboxylation by recombinant AADC; type: biochemical; conditions: enzyme plus PLP, monitored over 40 min, CO2 production
T2 construct: full-length recombinant AADC was incubaled with 3-OH-kynurenine
T2 sequence (P20711 1-480): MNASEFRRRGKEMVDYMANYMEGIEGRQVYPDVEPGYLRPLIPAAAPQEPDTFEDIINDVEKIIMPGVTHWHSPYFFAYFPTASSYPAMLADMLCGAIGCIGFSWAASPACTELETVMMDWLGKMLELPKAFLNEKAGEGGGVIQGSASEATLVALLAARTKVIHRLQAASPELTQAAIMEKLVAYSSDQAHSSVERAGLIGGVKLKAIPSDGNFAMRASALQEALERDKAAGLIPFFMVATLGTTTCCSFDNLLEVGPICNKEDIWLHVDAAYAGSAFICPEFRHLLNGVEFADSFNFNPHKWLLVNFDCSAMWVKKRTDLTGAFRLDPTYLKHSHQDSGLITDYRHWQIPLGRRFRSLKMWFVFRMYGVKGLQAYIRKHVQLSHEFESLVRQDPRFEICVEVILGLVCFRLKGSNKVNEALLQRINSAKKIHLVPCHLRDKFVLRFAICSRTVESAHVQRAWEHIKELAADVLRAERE
Method: FIG. 2. […] Tryptophan, a natural substrate for aromatic L-amino acid decarboxylase (AADC) was incubated with the enzyme and the PLP catalyst. In a separate reaction 3-OH-kynurenine was incubated under the same experimental conditions. Reactions were monitored over a 40 min. period. […] One of a triplicate experiment is shown.
As a next step, to determine whether AADC is the natural enzyme processing 3-OH-L-kynurenine into 3-OH-kynurenamine, full-length recombinant AADC was incubaled with 3-OH-kynurenine and its conversion to 3-OH-kynurenamine was followed by detecting CO2 production due to decarboxylation.

SMILES: NCCC(=O)c1cccc(O)c1N [3-OH-kynurenamine]
- AhR activation (luciferase reporter) [1]: induced a concentration-dependent AhR activation
- AhR activation relative to L-kynurenine ([1]; MEFs, 24 hours): around 6.5 times
- Tgfbl transcripts [2]: significantly upregulates
- idol transcripts [2]: significantly upregulates
- antigen-specific delayed-type hypersensitivity induced by immunostimulatory cDCs [3]: suppressed antigen-specific delayed-type hypersensitivity
- NF-κB inhibitor IKB level (quantitative proteomic) ([4]; cDC, 20 μM, 24 hr, IFNγ/3-OH-kynurenamine vs IFNγ control): up-regulation of the NF-κB inhibitor IKB
- MS1 quantification of immunological relevant proteins ([4]; dendritic cells, media supplemented with 3-OH-Kynurenamine vs media alone): down-regulated
- NFκB pathway (Western blot, densitometry) [5]: downregulation of the NFκB pathway
- skin inflammation / clinical and histological manifestation of psoriasis ([6]; 50 mg/kg): decreases clinical and histological manifestation of psoriasis; also recorded: decrease skin inflammation
- epidermis hyperplasia ([6]; H&E staining): statistically significant lower levels
- ortho and parakeratosis ([6]; H&E staining): statistically significant lower levels
- rete ridges formation ([6]; H&E staining): statistically significant lower levels
- nephrotoxic nephritis / kidney damage (proteinuria, overall animal survival) [7]: attenuates nephrotoxic nephritis (NTN)
- nephrotoxic nephritis / kidney damage (proteinuria, overall animal survival) ([7]; listed as 3-OH-Kynurenamine): decrease

SMILES: Nc1c(O)cccc1C(=O)C[C@H](N)C(=O)O [3-OH-kynurenine]
- conversion (decarboxylation) by AADC [8]: converted to 3-OH-kynurenamine; also recorded: AADC was capable of inducing 3-OH-kynurenine decarboxylation

SMILES: Nc1ccccc1C(=O)C[C@H](N)C(=O)O [L-kynurenine, reference compound]
- AhR activation (luciferase reporter) [1]: activated AhR in a concentration-dependent manner

SMILES: N[C@@H](Cc1c[nH]c2ccccc12)C(=O)O [Trp, Tryptophan]
- conversion (decarboxylation) by AADC [8]: converted to Tryptamine
